Measured values: ChEMBL document CHEMBL1781944, “The discovery of novel benzofuran-2-carboxylic acids as potent Pim-1 inhibitors” (Bioorg Med Chem Lett, 2011)
In brackets after ≈: the same amount, converted by molar mass. Activity calls are given as the source filed them. No cut-off for these calls is given here.

Tests used:
[1] = target: T1, Serine/threonine-protein kinase pim-1 (Homo sapiens, UniProt P11309)
Target sequence in this assay (P11309 whole entry): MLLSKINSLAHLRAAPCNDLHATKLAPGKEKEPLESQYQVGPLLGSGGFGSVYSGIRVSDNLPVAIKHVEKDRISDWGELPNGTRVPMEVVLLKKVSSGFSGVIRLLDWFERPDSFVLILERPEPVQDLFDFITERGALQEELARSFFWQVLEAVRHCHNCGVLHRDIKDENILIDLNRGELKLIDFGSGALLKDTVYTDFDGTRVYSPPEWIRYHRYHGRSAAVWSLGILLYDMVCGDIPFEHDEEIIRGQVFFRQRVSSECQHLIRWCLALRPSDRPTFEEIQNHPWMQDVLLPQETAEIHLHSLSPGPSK

[2] = target: Serine/threonine-protein kinase pim-2 (Homo sapiens, UniProt Q9P1W9)
Cytochrome P450 2C9 = Cytochrome P450 2C9 (Homo sapiens, UniProt P11712); assay: Inhibition of CYP2C9 in human liver microsomes; type: ADME, Microsome
Cytochrome P450 2C19 = Cytochrome P450 2C19 (Homo sapiens, UniProt P33261); assay: Inhibition of CYP2C19 in human liver microsomes; type: ADME, Microsome
Cytochrome P450 3A4 = Cytochrome P450 3A4 (Homo sapiens, UniProt P08684); assay: Inhibition of CYP3A4 in human liver microsomes; type: ADME, Microsome
[3] = Intrinsic clearance in rat liver microsomes; type: ADME, Microsome
Cytochrome P450 2D6 = Cytochrome P450 2D6 (Homo sapiens, UniProt P10635); assay: Inhibition of CYP2D6 in human liver microsomes; type: ADME, Microsome
Cytochrome P450 1A2 = target: T2, Cytochrome P450 1A2 (Homo sapiens, UniProt P05177); assay: Inhibition of CYP1A2 in human liver microsomes; type: ADME, Microsome
T2 sequence (P05177 whole entry): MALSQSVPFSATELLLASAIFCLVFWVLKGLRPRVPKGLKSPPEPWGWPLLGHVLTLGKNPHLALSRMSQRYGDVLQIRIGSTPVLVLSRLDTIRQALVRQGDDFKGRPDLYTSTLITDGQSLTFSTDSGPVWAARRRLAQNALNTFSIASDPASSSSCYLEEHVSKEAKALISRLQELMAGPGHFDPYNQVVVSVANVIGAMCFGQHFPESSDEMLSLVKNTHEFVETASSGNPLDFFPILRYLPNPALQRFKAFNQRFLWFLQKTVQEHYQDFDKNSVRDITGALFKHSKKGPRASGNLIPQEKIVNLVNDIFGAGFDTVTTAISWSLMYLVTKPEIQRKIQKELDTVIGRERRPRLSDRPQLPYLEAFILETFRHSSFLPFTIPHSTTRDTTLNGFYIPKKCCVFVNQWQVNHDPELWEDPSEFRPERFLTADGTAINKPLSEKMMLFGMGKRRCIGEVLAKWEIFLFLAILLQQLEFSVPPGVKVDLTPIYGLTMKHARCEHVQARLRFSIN

[4] = Solubility of the compound in phosphate buffered saline buffer at pH 7.4; type: physicochemical
in vitro = details: human, liver microsomes
[5] = target: T1, Serine/threonine-protein kinase pim-1; details: 25 uM
Target sequence in this assay (P11309 whole entry, looked up): as the sequence (P11309 whole entry) above

Sequence of Cytochrome P450 2D6 (P10635 whole entry): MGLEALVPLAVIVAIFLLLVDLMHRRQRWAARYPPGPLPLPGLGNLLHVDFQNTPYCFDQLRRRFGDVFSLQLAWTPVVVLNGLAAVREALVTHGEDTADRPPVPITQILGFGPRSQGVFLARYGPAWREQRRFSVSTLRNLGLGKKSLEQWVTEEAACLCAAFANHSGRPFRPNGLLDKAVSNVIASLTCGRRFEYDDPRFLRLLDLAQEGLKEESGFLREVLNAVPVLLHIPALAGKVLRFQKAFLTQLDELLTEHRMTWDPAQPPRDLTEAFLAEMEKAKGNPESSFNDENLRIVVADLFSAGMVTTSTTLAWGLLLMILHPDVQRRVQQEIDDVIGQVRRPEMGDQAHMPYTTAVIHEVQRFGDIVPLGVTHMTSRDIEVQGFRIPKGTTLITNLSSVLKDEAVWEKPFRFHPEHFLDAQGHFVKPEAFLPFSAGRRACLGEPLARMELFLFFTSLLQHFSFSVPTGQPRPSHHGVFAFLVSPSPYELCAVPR
Sequence of Cytochrome P450 2C9 (P11712 whole entry): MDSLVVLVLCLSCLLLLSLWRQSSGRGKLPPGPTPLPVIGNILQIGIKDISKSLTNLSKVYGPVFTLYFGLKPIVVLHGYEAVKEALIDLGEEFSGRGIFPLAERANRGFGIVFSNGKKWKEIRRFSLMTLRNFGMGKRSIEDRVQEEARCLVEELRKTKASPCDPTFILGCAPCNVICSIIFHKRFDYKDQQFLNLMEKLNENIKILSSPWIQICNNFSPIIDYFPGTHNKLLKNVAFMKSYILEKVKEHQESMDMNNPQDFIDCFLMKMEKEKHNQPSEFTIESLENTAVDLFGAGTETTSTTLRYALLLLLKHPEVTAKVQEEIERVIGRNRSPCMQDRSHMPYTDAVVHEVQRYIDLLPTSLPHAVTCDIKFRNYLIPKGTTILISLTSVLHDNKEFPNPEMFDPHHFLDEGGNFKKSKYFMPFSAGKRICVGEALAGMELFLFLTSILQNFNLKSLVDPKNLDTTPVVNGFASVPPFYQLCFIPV
Sequence of Cytochrome P450 2C19 (P33261 whole entry): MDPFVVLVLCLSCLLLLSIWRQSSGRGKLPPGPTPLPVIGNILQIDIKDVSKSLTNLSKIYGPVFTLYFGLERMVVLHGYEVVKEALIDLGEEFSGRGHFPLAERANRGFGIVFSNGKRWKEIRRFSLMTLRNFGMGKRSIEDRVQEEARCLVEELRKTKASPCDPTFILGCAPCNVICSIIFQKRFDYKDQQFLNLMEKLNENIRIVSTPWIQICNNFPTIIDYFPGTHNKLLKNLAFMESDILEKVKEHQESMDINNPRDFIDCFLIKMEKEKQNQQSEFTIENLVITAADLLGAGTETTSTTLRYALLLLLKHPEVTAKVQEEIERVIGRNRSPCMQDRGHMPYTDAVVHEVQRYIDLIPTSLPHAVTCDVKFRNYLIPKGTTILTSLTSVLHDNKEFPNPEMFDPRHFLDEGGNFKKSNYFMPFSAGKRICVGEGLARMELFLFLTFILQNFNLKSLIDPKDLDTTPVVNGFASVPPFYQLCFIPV
Sequence of Serine/threonine-protein kinase pim-2 (Q9P1W9 whole entry): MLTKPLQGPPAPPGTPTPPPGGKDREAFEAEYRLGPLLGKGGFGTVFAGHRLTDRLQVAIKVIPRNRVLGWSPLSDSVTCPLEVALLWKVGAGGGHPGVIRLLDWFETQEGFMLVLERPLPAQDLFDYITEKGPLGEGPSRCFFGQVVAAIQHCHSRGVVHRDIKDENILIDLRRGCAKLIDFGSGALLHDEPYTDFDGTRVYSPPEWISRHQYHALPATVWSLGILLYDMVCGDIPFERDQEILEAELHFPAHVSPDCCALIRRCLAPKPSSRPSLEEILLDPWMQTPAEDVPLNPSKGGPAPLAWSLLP
Sequence of Cytochrome P450 3A4 (P08684 whole entry): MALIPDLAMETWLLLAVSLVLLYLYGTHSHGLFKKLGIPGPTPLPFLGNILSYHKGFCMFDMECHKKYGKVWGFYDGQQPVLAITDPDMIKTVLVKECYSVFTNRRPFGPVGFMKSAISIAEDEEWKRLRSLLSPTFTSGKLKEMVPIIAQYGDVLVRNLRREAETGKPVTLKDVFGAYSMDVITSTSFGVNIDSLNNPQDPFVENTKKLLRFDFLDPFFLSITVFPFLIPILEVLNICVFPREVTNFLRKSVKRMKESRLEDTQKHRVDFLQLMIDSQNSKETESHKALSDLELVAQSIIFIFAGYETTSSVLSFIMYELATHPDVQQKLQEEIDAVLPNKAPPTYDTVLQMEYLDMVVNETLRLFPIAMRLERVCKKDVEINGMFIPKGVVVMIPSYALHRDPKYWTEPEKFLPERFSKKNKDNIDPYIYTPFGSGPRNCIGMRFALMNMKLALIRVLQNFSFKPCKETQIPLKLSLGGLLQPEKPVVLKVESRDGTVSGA

Compound | IC50 [1] [nM] | IC50 [2] [nM] | other results
NCCCCNc1nccc(-c2ccc3oc(C(=O)O)cc3c2)n1 | 460 | 590 | –
N[C@H]1CC[C@@H](Nc2cc(Br)cc3cc(C(=O)O)oc23)CC1 | – | 4 | IC50 (Cytochrome P450 2C9): > 10000 nM; IC50 (Cytochrome P450 2C19): > 10000 nM; IC50 (Cytochrome P450 3A4): > 10000 nM; microsomal CLint [3]: 10 µL/min/mg; IC50 (Cytochrome P450 2D6): > 10000 nM; IC50 (Cytochrome P450 1A2): > 10000 nM; solubility [4]: 20.1 µg/mL (≈ 56.9 µM); microsomal CLint (in vitro): 10.2 µL/min/mg
O=C(O)c1cc2cc(Br)cc(C(=O)NCC3CCNCC3)c2o1 | 2700 | 1300 | –
O=C(O)c1cc2cc(Br)cc(OCC3CCCNC3)c2o1 (configuration not stated) | 71 | 350 | –
O=C(O)c1cc2cc(Br)cc(NCCC3CCNCC3)c2o1 | 40 | 540 | –
N[C@H]1CC[C@@H](Nc2cncc(-c3ccc4oc(C(=O)O)cc4c3)n2)CC1 | 200 | 110 | –
O=C(O)c1cc2cc(Br)cc(N[C@H]3CC[C@@H](O)CC3)c2o1 | 2300 | 6800 | –
O=C(O)c1cc2cc(OC(F)(F)F)ccc2o1 | 6100 | – | –
O=C(O)c1cc2cc(Br)cc(NCC3CCNCC3)c2o1 | 20 | 190 | IC50 (Cytochrome P450 2C9): > 10000 nM; IC50 (Cytochrome P450 2C19): > 10000 nM; IC50 (Cytochrome P450 3A4): > 10000 nM; microsomal CLint [3]: 14.1 µL/min/mg; IC50 (Cytochrome P450 2D6): > 10000 nM; IC50 (Cytochrome P450 1A2): > 10000 nM; solubility [4]: > 58 µg/mL; microsomal CLint (in vitro): 9.9 µL/min/mg
O=C(O)c1cc2cc(C(F)(F)F)ccc2o1 | 5300 | 13500 | –
COc1cc(Br)cc2cc(C#N)oc12 | – | – | inhibition [5]: inactive
O=C(O)c1cc2cc(Br)cc(N[C@H]3CC[C@H](O)CC3)c2o1 | 2400 | 6100 | –
N[C@H]1CC[C@H](Nc2cncc(-c3ccc4oc(C(=O)O)cc4c3)n2)CC1 | – | 54 | –
Cn1cc(-c2ccc3oc(C(=O)O)cc3c2)cn1 | 5400 | 2900 | –
O=C(O)c1cc2cc(-c3cccnc3)ccc2o1 | 7800 | 7100 | –
O=C(O)c1cc2cc(Br)cc(OCc3ccncc3)c2o1 | 4900 | 12500 | –

Compound | IC50 [1] [nM] | IC50 [2] [nM] | other results
O=C(CC1CCNCC1)Nc1cc(Br)cc2cc(C(=O)O)oc12 | 55 | 340 | –
O=C(O)c1cc2cc(Br)cc(OCC3CCNCC3)c2o1 | 60 | 250 | –
O=C(O)c1cc2cc(-c3cncc(NC4CCNCC4)n3)ccc2o1 | 210 | 150 | –
N[C@H]1CC[C@H](Nc2cc(Br)cc3cc(C(=O)O)oc23)CC1 | – | 66 | IC50 (Cytochrome P450 2C9): > 10000 nM; IC50 (Cytochrome P450 2C19): > 10000 nM; IC50 (Cytochrome P450 3A4): > 10000 nM; microsomal CLint [3]: 8.1 µL/min/mg; IC50 (Cytochrome P450 2D6): > 10000 nM; IC50 (Cytochrome P450 1A2): > 10000 nM; solubility [4]: > 58 µg/mL; microsomal CLint (in vitro): 11.2 µL/min/mg
O=C(O)c1cc2cc(-c3cnn(C4CCNCC4)c3)ccc2o1 | 6000 | 5800 | –
O=C(O)c1cc2cc(Br)cc(OCCc3ccncc3)c2o1 | 4500 | 21100 | –
O=C(O)c1cc2cc(Br)cc(OCCC3CCNCC3)c2o1 | 51 | 350 | –
O=C(O)c1cc2cc(Br)cc(NC(=O)C3CCNCC3)c2o1 | 150 | 260 | –
O=C(O)c1cc2cc(-c3cncc(NC4CNC4)n3)ccc2o1 | 450 | 100 | –
NCCCCNc1ccnc(-c2ccc3oc(C(=O)O)cc3c2)n1 | 1900 | 1200 | –
O=C(O)c1cc2ccccc2o1 | 119000 | – | –
NC[C@H]1CC[C@H](Nc2cncc(-c3ccc4oc(C(=O)O)cc4c3)n2)CC1 | 53 | 21 | –
O=C(O)c1cc2cc(-c3cnccn3)ccc2o1 | 7400 | 11900 | –
O=C(O)c1cc2cc(-c3cncc(NCC4CCNCC4)n3)ccc2o1 | 380 | 160 | –
O=C(O)c1cc2cc(Br)cc(C(=O)NC3CCNCC3)c2o1 | 980 | 7000 | –
O=C(O)c1cc2cc(Br)cc(OCC(=O)N3CCNCC3)c2o1 | 220 | 1300 | –
